How the values were obtained:
[1] = biological target: T1, 5-hydroxytryptamine receptor 2C (Homo sapiens, UniProt P28335); test: DRUGMATRIX: Serotonin (5-Hydroxytryptamine) 5-HT2C radioligand binding (ligand: [3H] Mesulergine); format: cell membranes, CHO-K1, Membrane; settings: cho-k1; Not Active = under 50% inhibition at 10 µM
T1 sequence (P28335 whole entry): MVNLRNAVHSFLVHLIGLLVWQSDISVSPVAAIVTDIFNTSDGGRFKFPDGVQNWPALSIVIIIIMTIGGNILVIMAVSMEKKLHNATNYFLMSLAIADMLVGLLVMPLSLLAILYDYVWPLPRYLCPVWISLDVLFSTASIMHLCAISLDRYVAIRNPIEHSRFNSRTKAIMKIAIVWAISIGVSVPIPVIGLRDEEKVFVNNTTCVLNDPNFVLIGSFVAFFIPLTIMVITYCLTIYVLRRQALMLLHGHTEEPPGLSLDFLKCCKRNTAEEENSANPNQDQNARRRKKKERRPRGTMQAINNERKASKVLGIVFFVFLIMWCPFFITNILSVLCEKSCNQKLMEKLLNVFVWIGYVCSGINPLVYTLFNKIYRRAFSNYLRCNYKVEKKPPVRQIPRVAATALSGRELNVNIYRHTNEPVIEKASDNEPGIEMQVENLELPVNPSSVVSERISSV

[2] = biological target: Tyrosine-protein kinase Fyn (Homo sapiens, UniProt P06241); test: biochemical; format: cell-based, Insect cells; settings: insect cells;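 note: enzymatic inhibition of Fyn kinase activity measured with Poly(Glu:Tyr) as the phosphorylation substrate; in other assays of this panel Not Active means under 50% inhibition at 10 µM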
[3] = biological target: T2, Muscarinic acetylcholine receptor M2 (Homo sapiens, UniProt P08172); format: cell membranes, CHO-K1, Membrane; settings: cho-k1; note: in other assays of this panel Not Active means under 50% inhibition at 10 µM
T2 sequence (P08172 whole entry): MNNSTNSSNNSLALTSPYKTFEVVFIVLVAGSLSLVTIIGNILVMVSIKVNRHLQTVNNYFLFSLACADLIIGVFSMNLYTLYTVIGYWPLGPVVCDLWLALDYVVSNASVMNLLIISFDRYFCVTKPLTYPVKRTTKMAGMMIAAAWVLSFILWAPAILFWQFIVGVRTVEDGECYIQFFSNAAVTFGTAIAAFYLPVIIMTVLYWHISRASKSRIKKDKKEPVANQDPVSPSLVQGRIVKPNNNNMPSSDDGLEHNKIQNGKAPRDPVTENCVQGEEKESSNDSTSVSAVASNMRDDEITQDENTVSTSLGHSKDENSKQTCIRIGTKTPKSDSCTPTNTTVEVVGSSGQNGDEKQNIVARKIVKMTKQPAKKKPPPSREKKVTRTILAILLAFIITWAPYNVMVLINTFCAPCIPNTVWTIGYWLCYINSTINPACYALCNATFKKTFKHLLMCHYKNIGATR

Cytochrome P450 2E1 = Cytochrome P450 2E1 (Homo sapiens, UniProt P05181); settings: bti-tn-5b1-4; note: in other assays of this panel Not Active means under 50% inhibition at 10 µM
Melanocortin receptor 4 = Melanocortin receptor 4 (Homo sapiens, UniProt P32245); format: cell membranes, Membrane; settings: hek293; note: in other assays of this panel Not Active means under 50% inhibition at 10 µM
[4] = biological target: Aldo-keto reductase family 1 member B1 (Rattus norvegicus, UniProt P07943); format: tissue-based, Lens of camera-type eye
[5] = biological target: 5-hydroxytryptamine receptor 6 (Homo sapiens, UniProt P50406); format: cell membranes, HeLa, Membrane; settings: hela; note: in other assays of this panel Not Active means under 50% inhibition at 10 µM
Cytochrome P450 2C19 = Cytochrome P450 2C19 (Homo sapiens, UniProt P33261); settings: bti-tn-5b1-4; note: in other assays of this panel Not Active means under 50% inhibition at 10 µM
[6] = biological target: T3, 3-hydroxy-3-methylglutaryl-coenzyme A reductase (Homo sapiens, UniProt P04035); parameters: species or system Escherichia coli
T3 sequence (P04035 whole entry): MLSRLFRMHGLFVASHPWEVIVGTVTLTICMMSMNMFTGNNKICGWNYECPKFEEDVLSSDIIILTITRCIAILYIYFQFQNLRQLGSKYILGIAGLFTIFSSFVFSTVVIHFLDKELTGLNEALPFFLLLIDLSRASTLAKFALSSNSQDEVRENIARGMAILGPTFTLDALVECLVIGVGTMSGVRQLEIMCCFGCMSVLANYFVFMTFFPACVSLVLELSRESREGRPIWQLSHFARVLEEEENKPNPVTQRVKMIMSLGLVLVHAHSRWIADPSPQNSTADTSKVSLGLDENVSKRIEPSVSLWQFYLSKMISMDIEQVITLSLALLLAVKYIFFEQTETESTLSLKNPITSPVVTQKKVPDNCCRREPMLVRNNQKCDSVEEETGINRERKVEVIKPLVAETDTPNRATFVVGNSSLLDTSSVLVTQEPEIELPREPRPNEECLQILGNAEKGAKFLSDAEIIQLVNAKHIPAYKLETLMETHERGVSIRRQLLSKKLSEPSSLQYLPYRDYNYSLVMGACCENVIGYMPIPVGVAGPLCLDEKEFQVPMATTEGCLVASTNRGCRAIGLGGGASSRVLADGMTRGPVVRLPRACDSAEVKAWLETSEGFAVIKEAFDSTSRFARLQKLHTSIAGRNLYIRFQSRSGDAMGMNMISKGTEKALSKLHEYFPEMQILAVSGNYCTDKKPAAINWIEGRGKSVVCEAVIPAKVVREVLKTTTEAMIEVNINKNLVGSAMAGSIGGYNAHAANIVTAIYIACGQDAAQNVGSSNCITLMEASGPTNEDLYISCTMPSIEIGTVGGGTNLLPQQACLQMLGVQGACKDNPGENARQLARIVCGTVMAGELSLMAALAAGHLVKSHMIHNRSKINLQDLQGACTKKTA

[7] = DRUGMATRIX: Calcium Channel Type L, Dihydropyridine radioligand binding (ligand: [3H] Nitrendipine); format: cell membranes, Rattus norvegicus, Wistar, Cerebral cortex, Membrane; settings: Not Active = under 50% inhibition at 10 µM
[8] = biological target: T4, Alpha-2A adrenergic receptor (Homo sapiens, UniProt P08913); format: cell membranes, Sf9, Membrane; settings: sf9; note: in other assays of this panel Not Active means under 50% inhibition at 10 µM
T4 sequence (P08913 whole entry): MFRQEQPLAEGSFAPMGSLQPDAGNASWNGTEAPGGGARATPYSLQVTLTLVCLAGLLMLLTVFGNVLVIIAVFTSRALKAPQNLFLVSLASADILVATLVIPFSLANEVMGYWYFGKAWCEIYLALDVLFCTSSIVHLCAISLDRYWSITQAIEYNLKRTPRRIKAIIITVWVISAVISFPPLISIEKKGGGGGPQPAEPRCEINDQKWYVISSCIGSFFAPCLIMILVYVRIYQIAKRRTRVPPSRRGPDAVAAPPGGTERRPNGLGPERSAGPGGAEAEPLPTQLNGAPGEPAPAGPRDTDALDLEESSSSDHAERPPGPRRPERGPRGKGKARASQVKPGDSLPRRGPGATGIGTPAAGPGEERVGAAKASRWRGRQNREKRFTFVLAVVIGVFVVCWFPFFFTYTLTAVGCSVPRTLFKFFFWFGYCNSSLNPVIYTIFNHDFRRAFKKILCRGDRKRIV

Sequence of Tyrosine-protein kinase Fyn (P06241 whole entry): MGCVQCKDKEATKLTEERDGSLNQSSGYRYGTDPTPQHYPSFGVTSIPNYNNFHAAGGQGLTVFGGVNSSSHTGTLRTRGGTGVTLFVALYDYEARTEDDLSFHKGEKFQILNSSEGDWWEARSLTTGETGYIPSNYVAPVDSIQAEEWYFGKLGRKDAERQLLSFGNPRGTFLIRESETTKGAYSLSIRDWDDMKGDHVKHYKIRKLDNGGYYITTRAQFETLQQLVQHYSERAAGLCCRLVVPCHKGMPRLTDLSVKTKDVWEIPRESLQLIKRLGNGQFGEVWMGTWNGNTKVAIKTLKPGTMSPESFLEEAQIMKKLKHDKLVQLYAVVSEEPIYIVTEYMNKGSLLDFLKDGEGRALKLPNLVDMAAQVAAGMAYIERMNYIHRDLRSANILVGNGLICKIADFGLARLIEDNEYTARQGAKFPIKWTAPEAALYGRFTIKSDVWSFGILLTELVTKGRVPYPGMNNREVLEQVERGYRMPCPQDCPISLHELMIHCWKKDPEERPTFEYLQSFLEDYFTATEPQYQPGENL
Sequence of Melanocortin receptor 4 (P32245 whole entry): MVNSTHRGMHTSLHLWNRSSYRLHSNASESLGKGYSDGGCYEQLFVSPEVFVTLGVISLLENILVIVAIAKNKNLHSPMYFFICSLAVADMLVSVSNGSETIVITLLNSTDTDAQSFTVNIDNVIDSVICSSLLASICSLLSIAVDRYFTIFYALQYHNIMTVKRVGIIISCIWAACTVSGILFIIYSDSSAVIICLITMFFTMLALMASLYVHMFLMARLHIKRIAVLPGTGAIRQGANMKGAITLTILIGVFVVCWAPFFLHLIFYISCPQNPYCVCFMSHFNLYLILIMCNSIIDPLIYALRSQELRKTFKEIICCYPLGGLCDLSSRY
Sequence of 5-hydroxytryptamine receptor 6 (P50406 whole entry): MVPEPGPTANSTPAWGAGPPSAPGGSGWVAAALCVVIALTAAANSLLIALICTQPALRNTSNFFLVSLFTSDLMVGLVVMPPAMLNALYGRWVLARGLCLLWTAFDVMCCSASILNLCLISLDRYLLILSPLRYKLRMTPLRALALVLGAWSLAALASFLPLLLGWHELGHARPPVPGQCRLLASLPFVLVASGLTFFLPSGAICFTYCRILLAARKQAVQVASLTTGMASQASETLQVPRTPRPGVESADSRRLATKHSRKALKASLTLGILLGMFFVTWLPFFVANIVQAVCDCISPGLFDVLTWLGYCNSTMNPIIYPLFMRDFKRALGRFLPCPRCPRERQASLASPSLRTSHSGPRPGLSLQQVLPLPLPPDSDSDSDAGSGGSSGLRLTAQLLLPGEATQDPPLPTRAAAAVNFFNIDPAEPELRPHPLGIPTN
Sequence of Cytochrome P450 2E1 (P05181 whole entry): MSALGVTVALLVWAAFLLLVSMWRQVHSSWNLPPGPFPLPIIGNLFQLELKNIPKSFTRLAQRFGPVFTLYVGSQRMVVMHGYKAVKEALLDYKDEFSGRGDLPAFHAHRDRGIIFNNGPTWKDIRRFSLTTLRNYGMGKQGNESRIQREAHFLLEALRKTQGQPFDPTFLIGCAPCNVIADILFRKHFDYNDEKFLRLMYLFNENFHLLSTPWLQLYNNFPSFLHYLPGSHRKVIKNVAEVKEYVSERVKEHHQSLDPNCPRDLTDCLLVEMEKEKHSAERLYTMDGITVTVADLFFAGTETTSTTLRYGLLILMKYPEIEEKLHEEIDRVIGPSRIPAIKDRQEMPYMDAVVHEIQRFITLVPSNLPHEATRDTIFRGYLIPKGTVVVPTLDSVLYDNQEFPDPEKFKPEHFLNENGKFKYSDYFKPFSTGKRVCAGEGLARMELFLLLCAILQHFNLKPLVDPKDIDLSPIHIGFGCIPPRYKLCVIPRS
Sequence of Cytochrome P450 2C19 (P33261 whole entry): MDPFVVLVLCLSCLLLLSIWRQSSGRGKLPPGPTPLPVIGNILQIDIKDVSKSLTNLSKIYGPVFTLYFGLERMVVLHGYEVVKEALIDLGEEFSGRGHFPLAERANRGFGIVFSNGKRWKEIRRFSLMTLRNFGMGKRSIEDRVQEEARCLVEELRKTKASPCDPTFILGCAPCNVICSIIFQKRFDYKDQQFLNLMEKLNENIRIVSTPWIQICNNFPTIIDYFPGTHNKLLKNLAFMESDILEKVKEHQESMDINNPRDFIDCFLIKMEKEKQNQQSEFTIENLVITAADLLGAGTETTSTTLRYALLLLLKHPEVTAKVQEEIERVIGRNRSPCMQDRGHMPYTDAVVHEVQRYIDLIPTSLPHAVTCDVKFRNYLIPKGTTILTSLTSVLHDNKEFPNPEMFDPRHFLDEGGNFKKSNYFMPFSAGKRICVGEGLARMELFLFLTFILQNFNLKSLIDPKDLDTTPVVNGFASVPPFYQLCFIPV

Nc1nc2c(ncn2COC(CO)CO)c(=O)[nH]1 [GANCICLOVIR]
Not Active: IC50 [1] | IC50 [2] | IC50 [3] | IC50 (Cytochrome P450 2E1) | Ki (Cytochrome P450 2E1) | IC50 (Melanocortin receptor 4) | IC50 [4] | IC50 [5] | IC50 (Cytochrome P450 2C19) | Ki (Cytochrome P450 2C19) | IC50 [6] | IC50 [7] | Ki [7] | IC50 [8]

CC(=O)OCC(=O)[C@@]1(OC(C)=O)[C@@H](C)C[C@H]2[C@@H]3C[C@H](F)C4=CC(=O)C=C[C@]4(C)[C@@]3(F)[C@@H](O)C[C@@]21C [DIFLORASONE DIACETATE]
Not Active: IC50 [1] | IC50 [2] | IC50 [3] | IC50 (Cytochrome P450 2E1) | Ki (Cytochrome P450 2E1) | IC50 (Melanocortin receptor 4) | IC50 [4] | IC50 [5] | IC50 (Cytochrome P450 2C19) | Ki (Cytochrome P450 2C19) | IC50 [6] | IC50 [7] | Ki [7] | IC50 [8]

CNC(=O)Oc1ccc2c(c1)[C@]1(C)CCN(C)[C@@H]1N2C [PHYSOSTIGMINE]
Not Active: IC50 [1] | IC50 [2] | IC50 [3] | IC50 (Cytochrome P450 2E1) | Ki (Cytochrome P450 2E1) | IC50 (Melanocortin receptor 4) | IC50 [4] | IC50 [5] | IC50 (Cytochrome P450 2C19) | Ki (Cytochrome P450 2C19) | IC50 [6] | IC50 [7] | Ki [7] | IC50 [8]

C=C1[C@@H]2CCC3[C@@](CC[C@@H]4[C@H](C(=O)O)C[C@@H](O[C@@H]5O[C@H](CO)[C@@H](OS(=O)(=O)[O-])[C@H](OS(=O)(=O)[O-])[C@H]5OC(=O)CC(C)C)C[C@@]34C)(C2)[C@@H]1O.[K+].[K+] (stereo not given in full) [ATRACTYLOSIDE]
Not Active: IC50 [1] | IC50 [2] | IC50 [3] | IC50 (Cytochrome P450 2E1) | Ki (Cytochrome P450 2E1) | IC50 (Melanocortin receptor 4) | IC50 [4] | IC50 [5] | IC50 (Cytochrome P450 2C19) | Ki (Cytochrome P450 2C19) | IC50 [6] | IC50 [7] | Ki [7] | IC50 [8]

O=C1NC(=O)C(c2ccccc2)(c2ccccc2)N1 [PHENYTOIN]
Not Active: IC50 [1] | IC50 [2] | IC50 [3] | IC50 (Cytochrome P450 2E1) | Ki (Cytochrome P450 2E1) | IC50 (Melanocortin receptor 4) | IC50 [4] | IC50 [5] | IC50 (Cytochrome P450 2C19) | Ki (Cytochrome P450 2C19) | IC50 [6] | IC50 [7] | Ki [7] | IC50 [8]

Cc1c(-c2ccccc2)oc2c(C(=O)OCCN3CCCCC3)cccc2c1=O [FLAVOXATE]
Not Active: IC50 [1] | IC50 [2] | IC50 [3] | IC50 (Cytochrome P450 2E1) | Ki (Cytochrome P450 2E1) | IC50 (Melanocortin receptor 4) | IC50 [4] | IC50 [5] | IC50 (Cytochrome P450 2C19) | Ki (Cytochrome P450 2C19) | IC50 [6] | IC50 [7] | Ki [7] | IC50 [8]

C=C1CC[C@H](O)C/C1=C/C=C1\CCC[C@]2(C)[C@@H]([C@H](C)/C=C/[C@H](C)C(C)C)CC[C@@H]12 [ERGOCALCIFEROL]
Not Active: IC50 [1] | IC50 [2] | IC50 [3] | IC50 (Cytochrome P450 2E1) | Ki (Cytochrome P450 2E1) | IC50 (Melanocortin receptor 4) | IC50 [4] | IC50 [5] | IC50 (Cytochrome P450 2C19) | Ki (Cytochrome P450 2C19) | IC50 [6] | IC50 [7] | Ki [7] | IC50 [8]

NCC1(CC(=O)O)CCCCC1 [GABAPENTIN]
Not Active: IC50 [1] | IC50 [2] | IC50 [3] | IC50 (Cytochrome P450 2E1) | Ki (Cytochrome P450 2E1) | IC50 (Melanocortin receptor 4) | IC50 [4] | IC50 [5] | IC50 (Cytochrome P450 2C19) | Ki (Cytochrome P450 2C19) | IC50 [6] | IC50 [7] | Ki [7] | IC50 [8]

O=c1cc(-c2ccccc2)oc2c1ccc1ccccc12 [ALPHA-NAPHTHOFLAVONE]
Not Active: IC50 [1] | IC50 [2] | IC50 [3] | IC50 (Cytochrome P450 2E1) | Ki (Cytochrome P450 2E1) | IC50 (Melanocortin receptor 4) | IC50 [4] | IC50 [5] | IC50 (Cytochrome P450 2C19) | Ki (Cytochrome P450 2C19) | IC50 [6] | IC50 [7] | Ki [7] | IC50 [8]

COc1c(N2CCNC(C)C2)c(F)cc2c(=O)c(C(=O)O)cn(C3CC3)c12 (stereo not given) [GATIFLOXACIN]
Not Active: IC50 [1] | IC50 [2] | IC50 [3] | IC50 (Cytochrome P450 2E1) | Ki (Cytochrome P450 2E1) | IC50 (Melanocortin receptor 4) | IC50 [4] | IC50 [5] | IC50 (Cytochrome P450 2C19) | Ki (Cytochrome P450 2C19) | IC50 [6] | IC50 [7] | Ki [7] | IC50 [8]
